Laboratory results reported in patent publication US12269813B2, “Crystalline form of 1-(1-oxo-1,2-dihydroisoquinolin-5-yl)-5-(trifluoromethyl)-N-(2-(trifluoromethyl)pyridin-4-yl)-1H-pyrazole-4-carboxamide monohydrate” (Janssen Pharmaceutica NV, priority 2019, dated 2025).
“Also recorded” adds a separate entry of the source.

Tests used:
[1] = Moisture sorption analysis (dynamic vapor sorption, DVS); type: physicochemical; conditions: for hygroscopic behaviour: DVS, 0 to 95% RH at 25° C.; for loss of hydration water at low relative humidity: RH of 20% or less
Experimental: The moisture sorption analysis (DVS) was performed using a Surface Measurement Systems Advantage-1 dynamic vapor sorption apparatus. The moisture profile was evaluated by monitoring vapor adsorption/desorption over the range of 0 to 95% relative humidity at 25° C. The moisture profile consisted of 2 cycles of vapor adsorption/desorption.

[2] = Physical stability study with respect to water loss or uptake (water content by coulometric Karl Fischer); type: physicochemical
Experimental: The physical stability of Compound A monohydrate, Form III with respect to water loss or uptake was tested.
For the initial study, 0.5 g samples of monohydrate Form III were placed in double antistatic colourless LDPE bags and sealed.
For the long-term study (stability after 1 month and 3 months), 1.5 g samples of monohydrate Form III were placed in double antistatic colourless LDPE bags and sealed. The samples were stored at 30±2° C./75±5% RH and 40±2° C./75±5% RH in cardboard drums.
For the photostability study, 1.5 g of monohydrate Form III was placed into a petri dish and spread into a layer of no more than 3 mm thick. The petri dish was covered with quartz coverslips and sealed with parafilm. The photostability testing was carried out in line with ICH Q1B option 2 (ICH Harmonised Tripartite Guideline, Stability testing: Photostability testing of new drug substances and products, Q1B, Step 4 version, 6 Nov. 1996). Photostability samples were stored under separate lamps emitting visible and UV-A light, such that the total exposure was not less than 1.2 million lux hours and 200 Watt hours/m^2, respectively.
The water content of each of the samples was determined using a vaporized coulometric Karl Fischer method, in accordance with the US Pharmacopeia (USP <921> method IC; most recently appeared in Pharmacopeial Forum: Volume No. 38(1); Page information USP42/NF37-7092) and European Pharmacopeia 2.5.32 (Edition 10.0).

SMILES | hygroscopic behaviour ([1]; monohydrate) | loss of hydration water at low relative humidity ([1]; monohydrate) | water uptake ([1]; at 80% relative humidity) | Water content (%) ([2]; 30° C./75% RH, 1 month) | Water content (%) ([2]; 30° C./75% RH, 3 months) | Water content (%) ([2]; 40° C./75% RH, 1 month) | Water content (%) ([2]; 40° C./75% RH, 3 months) | Water content (%) ([2]; Initial) | hygroscopic character concluded from the stability study ([2]; Table 3 storage conditions) | Water content (%) ([2]; photostability, 1 × ICH option 2) | hygroscopic behaviour [1] | loss of hydration water at low relative humidity [1] | solid-state form change after the DVS test (XRPD pattern and IR spectrum) ([1]; fraction obtained after the DVS test vs starting material) | moisture adsorbed ([1]; humidity range 0-20% RH) | moisture adsorption and desorption ([1]; humidity range 20-95% RH, slow and reversible) | weight loss during the initial drying step (DVS change in mass plot) ([1]; initial drying step)
O=C(Nc1ccnc(C(F)(F)F)c1)c1cnn(-c2cccc3c(=O)[nH]ccc23)c1C(F)(F)F [Form III, 1-(1-oxo-1,2 dihydroisoquinolin-5-yl)-5-(trifluoromethyl)-N-(2-(trifluoromethyl)pyridin-4-yl)-1H-pyrazole-4-carboxamide (Compound A) monohydrate] | non-hygroscopic | does not lose water; also recorded: avoids loss of water | less than 0.2% | 3.3% | 3.8% | 3.3% | 3.2% | 3.4% | non-hygroscopic | 3.4% |  |  |  |  |  | 
O=C(Nc1ccnc(C(F)(F)F)c1)c1cnn(-c2cccc3c(=O)[nH]ccc23)c1C(F)(F)F [Form I, 1-(1-oxo-1,2-dihydroisoquinolin-5-yl)-5-(trifluoromethyl)-N-[2-(trifluoromethyl)pyridin-4-yl]-1H-pyrazole-4-carboxamide (Compound A) hydrate, Form I] |  |  |  |  |  |  |  |  |  |  | hygroscopic | lost at RH of 20% and less | No indication of a solid-state form change | 4.1-4.2% | 1.8% | ~2.7%
